# Results reported in patent US20160184279A1, “METHODS OF TREATING PAIN AND/OR ITCH WITH SMALL MOLECULE INHIBITORS TARGETING AN mTOR PATHWAY” (Transderm, Inc., priority 2014, published 2016).
# Test: Solubility of rapamycin in solvents
# Format: physicochemical
# Excerpt: Formulations for topical or transdermal delivery systems which effectively administer mTOR inhibitors to treat pain can be challenging to make. One such challenge can be caused by the structures of the various mTOR inhibitors and the associated solubility and/or stability challenges that exist for many of these compounds. […] Benzyl alcohol has been identified as a solvent that can effectively solubilize rapamycin. In particular, benzyl alcohol can support 20 wt % solutions and higher of rapamycin. […] For example, formulations utilizing Span 80 and/or Tween 20 as surfactants were only able to achieve benzyl alcohol loading of 20 wt % or less.
structure (smiles),measurement,setting,value
CO[C@H]1C[C@@H]2CC[C@@H](C)[C@@](O)(O2)C(=O)C(=O)N2CCCC[C@H]2C(=O)O[C@H]([C@H](C)C[C@@H]2CC[C@@H](O)[C@H](OC)C2)CC(=O)[C@H](C)/C=C(\C)[C@@H](O)[C@@H](OC)C(=O)[C@H](C)C[C@H](C)/C=C/C=C/C=C/1C [rapamycin],"solubility in aqueous compositions, ethanolic compositions, triglycerides, alkanes, and silicone systems",,poorly solubilized
same,solubility in benzyl alcohol,benzyl alcohol solution,≥ 20 wt %
